Values joined by “and” are separate entries in the source; they are usually repeats but may differ in a detail not shown here. Identical values can stand only once.
What was measured:
[1] = Intravenous and oral pharmacokinetics in male Sprague-Dawley rats; type: in vivo, rat; settings: for AUC0-inf / AUC0-t / Cmax / Tmax: rat blood; for AUC0-inf / AUC0-t / Cmax: mean ± SD; for Tmax: median; for T1/2: harmonic mean; for clearance as share of normal liver blood flow in rat (55 mL/min/kg) / mean volume of distribution as multiple of total body water: intravenous administration; for F (oral absolute bioavailability): oral 20 mg/kg vs IV 3 mg/kg, dose-normalised AUC0-inf
Protocol: Intravenous and oral pharmacokinetic studies are conducted on the novel non-covalent DNA binding agents, NSC 718813, NSC 723734 and NSC 726260, in male Sprague-Dawley rats. The studies are conducted in a parallel design with two groups of four male rats each for intravenous and oral administration of the test agents. The protocols for the studies are approved by the appropriate institutional animal care and use committee.
Groups of rats designated to receive oral doses of the novel non-covalent DNA binding agents of the invention molecules receive an oral dose of 20 mg/kg in a formulation vehicle comprised of N,N-dimethylacetamide (DMA), polyethylene glycol 400 (PEG400), ethanol, Cremophor EL and water (10:10:10:5:65 v/v). The dose volume for the oral doses of the test compounds is 8 mL/kg. Groups of rats are randomized to receive intravenous doses of agents. These rats receive a single intravenous bolus dose of 3 mg/kg of the test compound in a vehicle comprised of DMA:PEG400:ethanol:Cremophor EL:0.9% sodium chloride (saline) (10:10:10:5:65 v/v). The dose volume for intravenous doses of test agents is 1 mL/kg.
Predose blood samples are obtained from all rats from both, oral and intravenous dosing groups. For the intravenously dosed rats, blood samples (100 uL each) are obtained at 0.083, 0.25. 0.5, 1.0, 2.0, 4.0, 8.0, 12.0 and 24.0 hours post-dose. For the oral dose groups, the sampling times are identical to the intravenous dose group, except that the 0.083 hour sample is not collected. Following the collection of the blood samples, an equal volume of water is added to the blood sample to hemolyze the blood sample and the samples are stored frozen at −70° C. until bioanalysis.
Plasma samples are analyzed for the concentration of the test non-covalent DNA binding agents of the invention using an HPLC method with mass spectrometric (MS/MS) detection, following a liquid:liquid extraction of the plasma samples using a dichloromethane:ethyl acetate (20:80) mixture. To a 100 μL aliquot of sample, 50 μL of an internal standard (NSC 723732) is added. After mixing the internal standard wen, 2.5 mL of the extracting solvent (dichloromethane:ethyl acetate 20:80 v/v) is added. The mixture is vortexed for one minute and the samples are centrifuged at 3000 rpm for 3 minutes. Approximately 2 mL of the supernatant is taken from the centrifuged tubes and the sample is dried under a nitrogen stream at 50° C. The residue is reconstituted with 100 μL of the mobile phase and 20 μL is injected into the HPLC system for analysis. The mobile phase is comprised of milli-Q water:acetonitrile:formic acid (20:80:0.05) adjusted to pH 7.5 with ammonia.
The analysis of the test agent concentration is conducted by an HPLC method using a Shimadzu Prominence HPLC system and the eluent is analyzed using an API 4000 LC-MS/MS system (Applied Biosystems). The samples are analyzed on a HyPurity Advance, 50×4.6 mm, 5 u, Thermoelectron column. An injection volume of 20 μL is used for the analytical sample and the flow rate of the mobile phase is 0.6 mL/minute. Mass spectrometric analysis is conducted on the eluent using the API 4000 LC-MS/MS system and the mass parameters are analyzed for MRM transitions using NSC 723732 as the internal standard, in a positive ionization mode at a temperature of 400 C.

[2] = test system: Jurkat; experiment: Growth inhibition in tumor cell lines (Table 2); type: cell-based, human; settings: leukemia, PTEN deficiency
[3] = test system: homologous recombination repair deficiencies; experiment: Synthetic lethality with homologous recombination repair deficiencies (FIG. 8); type: cell-based; settings: FIG. 8 legend
[4] = test system: U2OS Wild type; experiment: siRNA inhibition of MMR, p53 and REV functions, alamar blue growth inhibition; type: cell-based, human; settings: for Fold improvement in IC50, mlh1: mlh1 siRNA vs control; for IC50: no siRNA knock out, read-out: IC50, Control; for Fold improvement in IC50, p53: p53 siRNA vs control; for Fold improvement in IC50, rev: rev siRNA vs control
Protocol: (§1) siRNA specific for different genes is purchased from Dharmacon (Thermo. Fisher Scientific Dharmacon Products, Lafayette, Colo. 80026) and the protocol recommended by the supplier is utilized. Confluent cells are trypsinized and 5000 cells are seeded in a well in the presence or absence of siRNA in 100 μL medium. The cells are incubated with siRNA for two days. A non-covalent DNA binding agent of the invention is added in a 10 μL volume and incubated for another 48 hours. After treatment with the agent, the medium is replaced with 1% alamar blue containing medium to measure fluorescence after two hours.
as §1, with “from Dharmacon (Thermo Fisher Scientific” for “from Dharmacon (Thermo. Fisher Scientific”, “two hours. […] The results are presented in FIGS. 14-18 (SEQ ID NO:3-12, respectively) and Table 7.” for “two hours.”

[5] = test system: H1299 (p53−); experiment: siRNA inhibition of MMR functions, alamar blue growth inhibition; type: cell-based, human; settings: for Fold improvement in IC50, mlh1: mlh1 siRNA vs control; for Fold improvement in IC50, msh2: msh2 siRNA vs control; for IC50: no siRNA knock out, read-out: IC50, Control
Protocol: as §1
as §1, with “from Dharmacon (Thermo Fisher Scientific” for “from Dharmacon (Thermo. Fisher Scientific”, “two hours. […] The results are presented in FIGS. 14-18 (SEQ ID NO:3-12, respectively) and Table 7.” for “two hours.”

[6] = test system: tumor cells that have K-RAS mutations and/or PTEN or mismatch repair gene deficiencies; experiment: Growth inhibition, summary of potency in text; type: cell-based, human; settings: among the three compounds tested, tumor cell lines
Protocol: Three novel non-covalent DNA binding agents of the invention, NSC 718813, NSC 723734 and NSC 726260, are tested in five different EGFR-resistant, K-Ras mutant cancer cell lines. These cell lines represent colorectal (SW480, SW620 and HCT116) and breast cancer (MDA-MB-231 and […]).
The in vitro assays to evaluate the anticancer potential of non-covalent DNA binding agents were measured by using one or more of the assays described below.
Tumor cells are plated in 96 well plates at a density of 8,000 to 10,000 cells per well in 100 uL volume and grown overnight. On the second day, the cells are supplemented with medium containing an appropriate dilution of the compounds to be tested. The cells are treated with the test compounds for two more days and the growth medium was replaced with fresh medium containing 3% Alamar Blue, incubated for 2-3 hours and plates are read in a SpectraMax Gemini XS fluorescence plate reader (Molecular Devices).

[7] = IV-bolus 3 mg/kg, rat, listed as NSC723734, 3 mg/kg

Row | SMILES | AUC0-inf ([1]; IV-bolus 3 mg/kg) | AUC0-t ([1]; IV-bolus 3 mg/kg) | Cmax ([1]; IV-bolus 3 mg/kg) | Tmax ([1]; IV-bolus 3 mg/kg) | T1/2 ([1]; IV-bolus 3 mg/kg, rat) | CLblood ([1]; IV-bolus 3 mg/kg, rat, 3 mg/kg) | clearance as share of normal liver blood flow in rat (55 mL/min/kg) ([1]; rat) | mean volume of distribution as multiple of total body water ([1]; rat) | F (oral absolute bioavailability) ([1]; rat) | AUC0-inf ([1]; oral solution 20 mg/kg) | AUC0-t ([1]; oral solution 20 mg/kg) | Cmax ([1]; oral solution 20 mg/kg) | Tmax ([1]; oral solution 20 mg/kg) | T1/2 ([1]; oral solution 20 mg/kg, rat) | IC50 [2] | synthetic lethality with homologous recombination repair deficiencies [3] | Fold improvement in IC50, mlh1 [4] | IC50 [4] | Fold improvement in IC50, p53 [4] | Fold improvement in IC50, rev [4] | also measured
1 | COc1cc2c(cc1OCCCCN1CCN(CCCCOc3cc4c(cc3OC)C(=O)N3CCC[C@H]3C=N4)CC1)N=C[C@@H]1CCCN1C2=O [NSC 723734] | 4405 ng·h/mL | 4246 ± 311 ng·h/mL | 4053 ng/mL | 0.083 h | 6.3 h | 11.4 ± 0.5 mL/min/kg | about 20% | about 4 times | 0.7% | 216 ng·h/mL | 196 ± 93 ng·h/mL | 90.5 ± 56 ng/mL | 0.25 h | 2.3 ± 0.7 h | 45 ± 4 nM | synthetic lethal | 3.5 fold | 70 nM | 1.2 fold | >70 fold | Vdss ([1]; IV-bolus 3 mg/kg, rat, 3 mg/kg): 3.2 ± 0.3 L/kg; CLblood [1, 7]: 11 mL/min/kg; Vdss [1, 7]: 3 L/kg; F (oral absolute bioavailability) ([1]; rat, listed as NSC723734): approximately 1%; Cmax ([1]; oral solution 20 mg/kg, listed as NSC723734): 91 ng/mL; Fold improvement in IC50, mlh1 [5]: 2.0 fold; Fold improvement in IC50, msh2 [5]: 2.6 fold; IC50 [5]: 900 nM
2 | COc1cc2c(cc1OCCCCCOc1cc3c(cc1OC)C(=O)N1CCC[C@H]1C(=O)N3)N=C[C@@H]1CCCN1C2=O [NSC 718813] | 2424 ± 309 ng·h/mL | 2376 ± 304 ng·h/mL | 5723 ± 1005 ng/mL | 0.08 h | 2.2 ± 0.4 h | approximately 20 mL/min/kg |  |  | 2% | 345 ± 142 ng·h/mL | 303 ± 129 ng·h/mL | 112 ± 32 ng/mL | 0.5 h | 1.8 ± 0.6 h | 17 ± 0.2 nM |  | 3.0 fold | 300 nM | 10 fold | 5 fold | Vdss ([1]; IV-bolus 3 mg/kg, rat): 1.5 ± 0.4 L/kg; CLblood ([1]; IV-bolus 3 mg/kg, rat, listed as NSC 718813/1, 3 mg/kg): 20.0 ± 2.9 mL/min/kg; time with rat blood concentrations well above in vitro GI50 and/or TGI ([1]; intravenous 3 mg/kg): at least 4 hours; time with measurable blood levels post-dose ([1]; oral dose 20 mg/kg): up to 8 hours; metabolic stability compared with naturally occurring antitumor antibiotic analogs ([1]; rat, inferred from systemic clearance): better metabolic stability; Fold improvement in IC50, mlh1 [5]: 1.3 fold; Fold improvement in IC50, msh2 [5]: 1.9 fold; IC50 [5]: 600 nM
3 | COc1cc2c(cc1OCCCC(=O)Nc1ccc3ccc4cccc5ccc1c3c45)N=C[C@@H]1CCCN1C2=O [NSC 726260] | 5112 ng·h/mL | 5058 ± 874 ng·h/mL | 5587 ng/mL | 0.083 h | 4.8 h | 10.4 mL/min/kg and 10.4 ± 2.0 mL/min/kg | about 20% | about 3 times |  | 2536 ng·h/mL | 2474 ± 844 ng·h/mL | 438 ng/mL | 4.0 h | 4.6 ± 1.7 h | 114 ± 26.7 nM | synthetic lethal | 135 fold | 400 nM | 1.1 fold | 135 fold | Vdss ([1]; IV-bolus 3 mg/kg, rat): 1.9 L/kg; IC50 [6]: ~1000 nM
